One assay deals with P. falc DD2. As to the kind of experiment: Biological activity EC50, P. falc DD2. Format: cell-based. Particulars: Plasmodium falciparum; Target (Cell Line): P. falc DD2.
A further assay has as its system P. falc 3D7. As to the kind of experiment: Biological activity EC50, P. falc 3D7. Format: cell-based. Particulars: Plasmodium falciparum; Target (Cell Line): P. falc 3D7.
The next assay deals with P. falc HB3. The assay can be described thus: Biological activity EC50, P. falc HB3. Format: cell-based. Particulars: Plasmodium falciparum; Target (Cell Line): P. falc HB3.
For a further assay, the system named is P. falc D10. The assay can be described thus: Biological activity EC50, P. falc D10. The assay is classed as cell-based, P. falciparum. Particulars: Target (Cell Line): P. falc D10.
A further assay concerns P. falc W2. As to the kind of experiment: Biological activity EC50, P. falc W2. The assay is classed as cell-based. Particulars: Plasmodium falciparum.
In another assay the test system is MB-MDA-231. The assay can be described thus: Biological activity EC50, MB-MDA-231. The assay is classed as cell-based.
The next assay has as its system HeLa. The assay can be described thus: Biological activity EC50, HeLa. The assay is classed as cell-based. Particulars: Homo sapiens; Target (Cell Line): HeLa.
Another assay has as its system MCF-7. As to the kind of experiment: Biological activity EC50, MCF-7. The assay is classed as cell-based. Particulars: Homo sapiens, MCF7; Target (Cell Line): MCF-7.
The subject of another assay is PC-3. As to the kind of experiment: Biological activity EC50, PC-3. Format: cell-based. Particulars: Homo sapiens; Target (Cell Line): PC-3.
The next assay deals with U87MG. The assay can be described thus: Biological activity EC50, U87MG. Format: cell-based. Particulars: Homo sapiens, U-87 MG; Target (Cell Line): U87MG.
The test system of another assay is IMR90. The assay can be described thus: Biological activity EC50, IMR90. The assay is classed as cell-based. Particulars: Homo sapiens, IMR-90; Target (Cell Line): IMR90.
The subject of a further assay is P. falc FCB. As to the kind of experiment: Biological activity EC50, P. falc FCB. Format: cell-based. Particulars: Plasmodium falciparum; Target (Cell Line): P. falc FCB.
Setting [1] is: Target (Cell Line): P. falc W2, read-out: Activity EC50.
[2] abbreviates: Target (Cell Line): MB-MDA-231, read-out: Activity EC50.

Among the data in patent US11014955B2, “Cyclic peroxides as prodrugs for selective delivery of agents” (THE REGENTS OF THE UNIVERSITY OF CALIFORNIA, priority 2014, dated 2021) are EC50 values, retold here.

“And” between values parts separate entries of the source, which are not always exact repeats. Equal entries are not always repeated. Structures can show the parent of a compound that is named as a salt. Where two headings read alike, the source gives them in different places.

A word on the EC50: it is the concentration needed to bring the measured effect to its halfway point. `CCCCN(CCCC)CCC(OC(=O)OC1CCCC2(C1)OOC1(O2)C2CC3CC(C2)CC1C3)c1cc2c(Cl)cc(Cl)cc2c2cc(C(F)(F)F)ccc12` (stereo not drawn) [Example 8, 3-(dibutylamino)-1-[1,3-dichloro-6-(trifluoromethyl)phenanthren-9-yl]propyl dispiro[adamantane-2,2′-[1,3,5]trioxolane-4′,1″-cyclohexane]-3″-yl carbonate]: the EC50 in the assay with P. falc DD2 was determined as 0.015 µM; with P. falc 3D7, 0.021 µM; in the assay on P. falc HB3, 0.008 µM.
Take `CCCCC(C(=O)COc1c(F)c(F)cc(F)c1F)n1cc(C2(NC(=O)OC3CCCC4(C3)OOC3(O4)C4CC5CC(C4)CC3C5)CCCCC2)nn1` (stereo not drawn) [Example 9, dispiro[adamantane-2,2′-[1,3,5]trioxolane-4′,1″-cyclohexane]-3″-yl N-(1-{1-[2-oxo-1-(2,3,5,6-tetrafluorophenoxy)heptan-3-yl]-1H-1,2,3-triazol-4-yl}cyclohexyl)carbamate]: the EC50 is 0.029 µM in the assay with P. falc D10 (Plasmodium falciparum); 0.0157 µM and 0.0233 µM in the assay with P. falc D10.
Turning to `O=C1C(O)=C(C2CCC3(CC2)OOC2(O3)C3CC4CC(C3)CC2C4)C(=O)c2ccccc21` (stereo not drawn) [Example 10, 2-{dispiro[adamantane-2,2′-[1,3,5]trioxolane-4′,1″-cyclohexane]-4″-yl}-3-hydroxy-1,4-dihydronaphthalene-1,4-dione], the EC50 in the assay on P. falc DD2 came to 0.188 µM; with P. falc 3D7, 0.188 µM; in the assay with P. falc HB3, 0.094 µM.
With `COc1ccc(-c2cnnn2-c2cc(OC)c(OC)c(OC)c2)cc1NC(=O)OC1CCCC2(C1)OOC1(O2)C2CC3CC(C2)CC1C3` (stereo not drawn) [Example 11, dispiro[adamantane-2,2′-[1,3,5]trioxolane-4′,1″-cyclohexane]-3″-yl N-{2-methoxy-5-[1-(3,4,5-trimethoxyphenyl)-1H-1,2,3-triazol-5-yl]phenyl}carbamate], the EC50 was 34 nM with P. falc W2 (setting [1]); 42 nM in the assay with MB-MDA-231 (setting [2]); 0.057 µM with HeLa; 0.024 µM with MCF-7; 0.026 µM with PC-3.
For the compound `COc1ccc(-c2cnnn2-c2cc(OC)c(OC)c(OC)c2)cc1NC(=O)OC1CCCC2(C1)OCC1(O2)C2CC3CC(C2)CC1C3` (stereo not drawn) [Example 12, dispiro[adamantane-2,4′-[1,3]dioxolane-2′,1″-cyclohexane]-3″-yl N-{2-methoxy-S-[1-(3,4,5-trimethoxyphenyl)-1H-1,2,3-triazol-5-yl]phenyl}carbamate], the 50% effective concentration (EC50) with P. falc W2 (setting [1]) is more than 1000 nM; in the assay on HeLa, more than 1 µM; in the assay with MCF-7, more than 1 µM; with PC-3, more than 1 µM.
On to `COc1ccc(-c2cnnn2-c2cc(OC)c(OC)c(OC)c2)cc1NC(=O)OC1CCCC2(COC3(O2)C2CC4CC(C2)CC3C4)C1` (stereo not drawn) [Example 13, dispiro[adamantane-2,2′-[1,3]dioxolane-4′,1″-cyclohexane]-3″-yl N-{2-methoxy-5-[1-(3,4,5-trimethoxyphenyl)-1H-1,2,3-triazol-5-yl]phenyl}carbamate], for which the EC50 in the assay with P. falc W2 (setting [1]) is more than 1000 nM; in the assay on MB-MDA-231 (setting [2]) it was more than 1000 nM; with HeLa, more than 1 µM; with MCF-7 it was more than 1 µM; with U87MG, more than 1 µM; in the assay with PC-3, more than 1 µM.
As to `COc1ccc(/C=C/C(=O)N2CC(CCl)c3c2cc(NC(=O)OC2CCCC4(C2)OOC2(O4)C4CC5CC(C4)CC2C5)c2ccccc32)cc1` (stereo not drawn) [Example 14, dispiro[adamantane-2,2′-[1,3,5]trioxolane-4′,1″-cyclohexane]-3″-yl N-[1-(chloromethyl)-3-[(2E)-3-(4-methoxyphenyl)prop-2-enoyl]-1H,2H,3H-benzo[e]indol-5-yl]carbamate], the EC50 came to 2.8 nM in the assay with P. falc W2 (setting [1]), 0.105 µM in the assay with HeLa, 0.1 µM in the assay with IMR90 and 0.04 µM in the assay with U87MG.
For the compound `O=C(Oc1ccc2ccc(=O)oc2c1)OC1CCCC2(C1)OOC1(O2)C2CC3CC(C2)CC1C3` (stereo not drawn) [Example 17, dispiro[adamantane-2,2′-[1,3,5]trioxolane-4′,1″-cyclohexane]-3″-yl 2-oxo-2H-chromen-7-yl carbonate], the EC50 in the assay with P. falc D10 (Plasmodium falciparum) was determined as 0.0253 µM.
Regarding `CN(C)c1cccc2c(S(=O)(=O)OC34CC5CC(C3)C3(OOC6(CCCCC6)O3)C(C5)C4)cccc12` (stereo not drawn) [Example 18, dispiro[adamantane-2,2′-[1,3,5]trioxolane-4′,1″-cyclohexane]-7-yl 5-(dimethylamino)naphthalene-1-sulfonate], the EC50 in the assay on P. falc FCB came to 0.0179 µM.
The same measure, in the same setting: in the case of `CN(C)c1cccc2c(S(=O)(=O)NCCCNC3CCC4(CC3)OOC3(O4)C4CC5CC(C4)CC3C5)cccc12` (stereo not drawn) [Example 19, 5-(dimethylamino)-N-[3-({dispiro[adamantane-2,2′-[1,3,5]trioxolane-4′,1″-cyclohexane]-4″-yl}amino)propyl]naphthalene-1-sulfonamide] it was 0.0146 µM.
Consider `COc1ccc(C[C@H](NC(=O)OC2CCCC3(C2)OOC2(O3)C3CC4CC(C3)CC2C4)C(=O)N[C@H]2[C@@H](O)[C@H](n3cnc4c(N(C)C)ncnc43)O[C@@H]2CO)cc1` (stereo partly drawn) [Example 22, dispiro[adamantane-2,2′-[1,3,5]trioxolane-4′,1″-cyclohexane]-3″-yl N-[(1S)-1-{[(2S,3S,4R,5R)-5-[6-(dimethylamino)-9H-purin-9-yl]-4-hydroxy-2-(hydroxymethyl)oxolan-3-yl]carbamoyl}-2-(4-methoxyphenyl)ethyl]carbamate], for which the EC50 in the assay with MB-MDA-231 (setting [2]) was found to be 5270 nM; in the assay on HeLa, 3.21 µM; in the assay with P. falc DD2, 0.0127 µM; in the assay with IMR90 it was 6.98 µM.
`CCCCC(C(=O)COc1c(F)c(F)cc(F)c1F)n1cc(C2(N)CCCCC2)nn1` (stereo not drawn) [Literature Compound A, reference compound] came in with an EC50 in the assay with P. falc D10 (Plasmodium falciparum) of 0.07 µM.
In the case of `COc1ccc(-c2cnnn2-c2cc(OC)c(OC)c(OC)c2)cc1N` [Literature Compound B, reference compound], the EC50 in the assay on P. falc W2 (read-out: Activity EC50 (nM)) was more than 1000 nM; in the assay on MB-MDA-231 (read-out: Activity EC50 (nM)), 10 nM; in the assay with HeLa it was 0.011 µM; in the assay on MCF-7, 0.01 µM; in the assay on PC-3 it was 0.009 µM.
`COc1ccc(/C=C/C(=O)N2CC(CCl)c3c2cc(N)c2ccccc32)cc1` (stereo not drawn) [Literature Compound C, reference compound]: the EC50 in the assay on P. falc W2 (read-out: Activity EC50 (nM)) amounted to 0.45 nM; in the assay with HeLa it was 0.011 µM; in the assay on IMR90 it was 0.003 µM; in the assay on U87MG it was 0.005 µM.
With `COc1ccc(C[C@H](N)C(=O)N[C@H]2[C@@H](O)[C@H](n3cnc4c(N(C)C)ncnc43)O[C@@H]2CO)cc1` [Puromycin dihydrochloride, reference compound], the EC50 stood at 569 nM in the assay on MB-MDA-231 (setting [2]), 0.783 µM with HeLa, 0.0253 µM in the assay with P. falc DD2 and 1.7 µM in the assay on IMR90.
